We go through three molecules from US20220204491A1, “FXR (NR1H4) MODULATING COMPOUNDS” (Gilead Sciences, Inc., priority 2019, published 2022).

Where two headings read alike, the source gives them in different places.

Series [1] in a line: Drug concentration in plasma of cynomolgus monkey (LC/MS/MS). The note with it: male cynomolgus monkey, read-out: GS-AUClast. The series is classed as in vivo. Here is the method: (§1) Oral solution doses of Formula (I) (Example 1) were formulated at concentrations of 1 mg/mL in aqueous suspensions of 1% sodium laurel sulfate (SLS), 1% ethanol, and 98% water at pH 2. Oral suspension doses of Comparative Example 1, and Comparative Example 2 were formulated at concentrations of 2.5 mg/mL in 1% hydyroxypropyl methylcellulose (HPMC), 0.5% Tween 80, and 98.5% water.
(§2) Intravenous doses of compounds of Formula (I) (Example 1), Comparative Example 1, and Comparative Example 2 were formulated at concentrations of 0.5 mg/mL in a vehicle including 5% DMSO, 15% NMP, 60% PEG 300 and water with 1.1 equivalents of NaOH.
(§3) Each dosing group consisted of three to six male Cynomolgus monkeys. At dosing, the animals weighed between 2.4 and 4.4 kg.
(§4) The oral test articles were administered to the monkeys via oral gavage at 2 mL/kg or nasogastric untubation at 5 mL/kg for a dose of 5 mg/kg. The intravenous test articles were administered as an approximately 30-minute infusion via an indwelling catheter in a saphenous or cephalic vein at approximately 2 mL/kg for a dose of 1 mg/kg.
(§5) Venous blood samples were taken at specified time points after dosing from each animal. The blood samples were collected and transferred into tubes containing potassium (K2) EDTA anticoagulant.
For analysis on an API 5000 LC/MS/MS system, an aliquot of 50 μL of each plasma sample was treated with 200 μL of acetonitrile (ACN) containing internal standard. The above solution was centrifuged at 5000 RPM for 10 minutes and 50 μL of supernatant was transferred to a clean 96-well plate, followed by the addition of 200 μL of water. An aliquot of 10 μL was injected to the API 5000 LC/MS/MS system.
For analysis on an Applied Biosystems API 5500 LC/MS/MS system, an aliquot of 20 μL of each plasma sample was treated with 120 μL acetonitrile (ACN) containing internal standard. The above solution was centrifuged and 100 μL of supernatant was transferred to a clean 96-well plate, followed by the addition of 100 μL of water. An aliquot of 7-10 μL was injected to the API 5500 LC/MS/MS system.
A Zorbax Extend C18 HPLC column (50×2.1 mm, 3.5 μm) from Agilent Technologies (Part #735700-902) (Comparative Example 1, and Comparative Example 2) or a Waters BEH C18 column (50×2.1 mm, 1.7 μm) (Example 1) was used. For the Zorbax Extend C18 HPLC column, mobile phase A contained an aqueous solution of 1% acetonitrile in 10 mM ammonium formate adjusted to pH 3.0 with formic acid and mobile phase B contained and 10% 10 mM ammonium formate in acetonitrile adjusted to pH 4.6 with formic acid. For the Waters BEH C18 column, mobile phase A contained 95% water, 5% acetonitrile, and 0.1% formic acid and mobile phase B contained 50% methanol, 50% acetonitrile, and 0.1% formic acid. A Thermo Aria multiplexer with two identical Agilent 1200 series binary pumps (P/N G1312A Bin Pump) was used for elution and separation. The elution programs used are set forth in the following Table 2 for the Zorbax Extend C18 HPLC and Table 3 for the Waters BEH C18 column.
An API 5000 triple quadrupole mass spectrometer from AB Sciex, Foster City, Calif. was used in multiple reaction monitoring mode to quantify the compounds.
Activation of the Farnesoid X receptor in the distal small intestine as well as systemically in organs such as the liver, directly causes the expression and secretion of FGF19. Plasma FGF levels were evaluated as a pharmacodynamics marker of FXR activation in male cynomolgus monkeys following administration of oral and intravenous administration of doses of Example 1, Comparative Example 1, or Comparative Example 2. The difference between levels of FGF19 following oral administration (PO) versus intravenous administration (IV) were used to compare the degree of intestinal FXR agonism (via analysis of PO data) and systemic FXR agonism (via analysis of IV data) for each compound administered. […]

Series [2] concerns Farnesoid X receptor. Briefly: In vivo pharmacodynamics in cynomolgus monkey: plasma FGF19 after oral versus IV dosing. Conditions: for FGF19 levels compared to baseline: IV administration; for FGF19 levels compared to baseline / plasma FGF19 over the dosing interval compared to baseline: cynomolgus monkey; for FGF19 AUClast: male cynomolgus monkey, plasma, 24 hour period; for Ratio AUClast to FG19/GS: FGF19 AUClast over drug AUClast; for PO/IV: PO ratio (FGF19/GS AUClast) over IV ratio; for plasma FGF19 over the dosing interval compared to baseline: oral administration. The protocol:
In vivo pharmacodynamics of Formula (I) of Example 1, Comparative Example 1, and Comparative Example 2 were determined as follows.
as §1, §2, §3, §4, §5
The FGF19 ELISA assay kit from BioVendor (product number RD191107200R) was used to determine FGF19 concentrations in the collected blood samples.
Activation of the Farnesoid X receptor in the distal small intestine as well as systemically in organs such as the liver, directly causes the expression and secretion of FGF19. Plasma FGF levels were evaluated as a pharmacodynamics marker of FXR activation in male cynomolgus monkeys following administration of oral and intravenous administration of doses of Example 1, Comparative Example 1, or Comparative Example 2. The difference between levels of FGF19 following oral administration (PO) versus intravenous administration (IV) were used to compare the degree of intestinal FXR agonism (via analysis of PO data) and systemic FXR agonism (via analysis of IV data) for each compound administered. Plasma levels of drug and FGF19 were measured at various time points over a 24 hour period to generate pharmacokinetic and pharmacodynamics curves.

In the case of `O=C(O)c1ccc(N2CC(O)(c3ccc(OCc4c(-c5c(Cl)cccc5Cl)noc4C4CC4)cc3Cl)C2)nc1` [Comparative Example 2], the AUC(0-t) in series [1] (IV infusion, 1 mg/kg) was 3140 nM·h; in series [1] (PO, 5 mg/kg), 643 nM·h. The “FGF19 levels compared to baseline” value in series [2] (1 mg/kg) is “increased FGF19 levels”. Also, the “FGF19 AUClast” value stood at 10757 ± 2551 pg·h/mL in series [2] (IV infusion, 1 mg/kg) and 18193 ± 7134 pg·h/mL in series [2] (PO, 5 mg/kg). Moreover, the “Ratio AUClast to FG19/GS” value stood at 3.4 in series [2] (IV, 1 mg/kg) and 28 in series [2] (PO, 5 mg/kg). Also, in series [2], the PO/IV is 8.2. Moreover, the “plasma FGF19 over the dosing interval compared to baseline” value in series [2] (5 mg/kg) is given as “caused increases in plasma FGF19”.

For `O=C(O)c1ccc(N2CC(O)(c3ccc(OCc4c(-c5c(Cl)cc(F)cc5Cl)noc4C4CC4)cc3Cl)C2)nc1` [Example 1, 6-(3-(2-chloro-4-((5-cyclopropyl-3-(2,6-dichloro-4-fluorophenyl)isoxazol-4-yl)methoxy)phenyl)-3-hydroxyazetidin-1-yl)nicotinic acid], the AUC(0-t) in series [1] (IV infusion, 1 mg/kg) was determined as 3150 nM·h; in series [1] (PO, 5 mg/kg), 2250 nM·h. In addition, the “FGF19 levels compared to baseline” value in series [2] (1 mg/kg) was “did not cause in increase in FGF19”. In addition, the “FGF19 AUClast” value in series [2] (IV infusion, 1 mg/kg) amounted to 5144 ± 2199 pg·h/mL; in series [2] (PO, 5 mg/kg), 28153 ± 11539 pg·h/mL. The “Ratio AUClast to FG19/GS” value in series [2] (IV, 1 mg/kg) came to 1.6; in series [2] (PO, 5 mg/kg), 12.5. In addition, the PO/IV in series [2] worked out at 7.8. Moreover, the “plasma FGF19 over the dosing interval compared to baseline” value in series [2] (5 mg/kg) is reported as “caused increases in plasma FGF19”.

As to `O=C(O)c1cnc(N2CC(O)(c3ccc(OCc4c(-c5c(Cl)cc(F)cc5Cl)noc4C4CC4)cc3Cl)C2)c(F)c1` [Comparative Example 1, 6-(3-(2-chloro-4-((5-cyclopropyl-3-(2,6-dichloro-4-fluorophenyl)isoxazol-4-yl)methoxy)phenyl)-3-hydroxyazetidin-1-yl)-5-fluoronicotinic acid], the AUC(0-t) in series [1] (IV infusion, 1 mg/kg) amounted to 1630 nM·h; in series [1] (PO, 5 mg/kg), 1670 nM·h. For the same molecule, the “FGF19 levels compared to baseline” value in series [2] (1 mg/kg) is “increased FGF19 levels”. In addition, the “FGF19 AUClast” value in series [2] (IV infusion, 1 mg/kg) worked out at 22798 ± 2387 pg·h/mL; in series [2] (PO, 5 mg/kg), 32085 ± 4252 pg·h/mL. In addition, the “Ratio AUClast to FG19/GS” value in series [2] (IV, 1 mg/kg) is 14; in series [2] (PO, 5 mg/kg), 19.2. The PO/IV in series [2] amounted to 1.37. Besides, the “plasma FGF19 over the dosing interval compared to baseline” value in series [2] (5 mg/kg) is “caused increases in plasma FGF19”.
